Measured values taken from the NIST ThermoML archive (doi:10.1021/je200721d).
± gives the expanded uncertainty stated by the source.

Test: xn = mol fraction of the nth substance listed
Settings: Liquid, Vibrating tube method

CCCCCCCC [octane] + CCCCCC
mass density (352.91 K, 7000 kPa, x2 = 0.1654): 656.4 ± 0.32 kg/m3 | mass density (352.91 K, 7000 kPa, x2 = 0.9308): 619.06 ± 0.34 kg/m3 | mass density (352.91 K, 8000 kPa, x2 = 0.1654): 657.6 ± 0.33 kg/m3 | mass density (352.91 K, 8000 kPa, x2 = 0.9308): 620.53 ± 0.35 kg/m3 | mass density (352.91 K, 9000 kPa, x2 = 0.1654): 658.8 ± 0.33 kg/m3 | mass density (352.91 K, 9000 kPa, x2 = 0.9308): 621.96 ± 0.36 kg/m3 | mass density (352.91 K, 10000 kPa, x2 = 0.1654): 659.99 ± 0.34 kg/m3 | mass density (352.91 K, 10000 kPa, x2 = 0.9308): 623.39 ± 0.37 kg/m3 | mass density (352.91 K, 11000 kPa, x2 = 0.1654): 661.15 ± 0.35 kg/m3 | mass density (352.91 K, 11000 kPa, x2 = 0.9308): 624.78 ± 0.38 kg/m3 | mass density (352.91 K, 12000 kPa, x2 = 0.1654): 662.28 ± 0.36 kg/m3 | mass density (352.91 K, 12000 kPa, x2 = 0.9308): 626.15 ± 0.39 kg/m3 | mass density (352.91 K, 13000 kPa, x2 = 0.1654): 663.41 ± 0.37 kg/m3 | mass density (352.91 K, 13000 kPa, x2 = 0.9308): 627.49 ± 0.4 kg/m3 | mass density (352.91 K, 14000 kPa, x2 = 0.1654): 664.53 ± 0.38 kg/m3 | mass density (352.91 K, 14000 kPa, x2 = 0.9308): 628.8 ± 0.41 kg/m3 | mass density (352.91 K, 15000 kPa, x2 = 0.1654): 665.63 ± 0.39 kg/m3 | mass density (352.91 K, 15000 kPa, x2 = 0.9308): 630.08 ± 0.42 kg/m3 | mass density (352.91 K, 16000 kPa, x2 = 0.1654): 666.68 ± 0.4 kg/m3 | mass density (352.91 K, 16000 kPa, x2 = 0.9308): 631.35 ± 0.43 kg/m3 | mass density (352.91 K, 17000 kPa, x2 = 0.1654): 667.73 ± 0.41 kg/m3 | mass density (352.91 K, 17000 kPa, x2 = 0.9308): 632.57 ± 0.45 kg/m3 | mass density (352.91 K, 18000 kPa, x2 = 0.1654): 668.76 ± 0.42 kg/m3 | mass density (352.91 K, 18000 kPa, x2 = 0.9308): 633.78 ± 0.46 kg/m3 | mass density (352.91 K, 19000 kPa, x2 = 0.1654): 669.76 ± 0.43 kg/m3 | mass density (352.91 K, 19000 kPa, x2 = 0.9308): 634.96 ± 0.47 kg/m3 | mass density (352.91 K, 20000 kPa, x2 = 0.1654): 670.78 ± 0.44 kg/m3 | mass density (352.91 K, 20000 kPa, x2 = 0.9308): 636.11 ± 0.48 kg/m3 | mass density (352.91 K, 21000 kPa, x2 = 0.1654): 671.71 ± 0.45 kg/m3 | mass density (352.91 K, 21000 kPa, x2 = 0.9308): 637.22 ± 0.49 kg/m3 | mass density (352.91 K, 22000 kPa, x2 = 0.1654): 672.65 ± 0.46 kg/m3 | mass density (352.91 K, 22000 kPa, x2 = 0.9308): 638.32 ± 0.5 kg/m3 | mass density (352.91 K, 23000 kPa, x2 = 0.1654): 673.59 ± 0.46 kg/m3 | mass density (352.91 K, 23000 kPa, x2 = 0.9308): 639.39 ± 0.51 kg/m3 | mass density (352.91 K, 24000 kPa, x2 = 0.1654): 674.5 ± 0.47 kg/m3 | mass density (352.91 K, 24000 kPa, x2 = 0.9308): 640.43 ± 0.52 kg/m3 | mass density (352.91 K, 25000 kPa, x2 = 0.1654): 675.39 ± 0.48 kg/m3 | mass density (352.91 K, 25000 kPa, x2 = 0.9308): 641.44 ± 0.54 kg/m3 | mass density (352.92 K, 1000 kPa, x2 = 0.7995): 618.46 ± 0.28 kg/m3 | mass density (352.92 K, 2000 kPa, x2 = 0.7995): 619.98 ± 0.29 kg/m3 | mass density (352.92 K, 3000 kPa, x2 = 0.7995): 621.51 ± 0.3 kg/m3 | mass density (352.92 K, 4000 kPa, x2 = 0.7995): 623 ± 0.31 kg/m3 | mass density (352.92 K, 5000 kPa, x2 = 0.7995): 624.48 ± 0.32 kg/m3 | mass density (352.92 K, 6000 kPa, x2 = 0.7995): 625.93 ± 0.33 kg/m3 | mass density (352.92 K, 7000 kPa, x2 = 0.7995): 627.37 ± 0.34 kg/m3 | mass density (352.92 K, 8000 kPa, x2 = 0.7995): 628.79 ± 0.35 kg/m3 | mass density (352.92 K, 9000 kPa, x2 = 0.7995): 630.18 ± 0.36 kg/m3 | mass density (352.92 K, 10000 kPa, x2 = 0.7995): 631.54 ± 0.37 kg/m3 | mass density (352.92 K, 11000 kPa, x2 = 0.7995): 632.86 ± 0.38 kg/m3 | mass density (352.92 K, 12000 kPa, x2 = 0.7995): 634.17 ± 0.39 kg/m3 | mass density (352.92 K, 13000 kPa, x2 = 0.7995): 635.46 ± 0.4 kg/m3 | mass density (352.92 K, 14000 kPa, x2 = 0.7995): 636.72 ± 0.41 kg/m3 | mass density (352.92 K, 15000 kPa, x2 = 0.7995): 637.96 ± 0.42 kg/m3 | mass density (352.92 K, 16000 kPa, x2 = 0.7995): 639.16 ± 0.43 kg/m3 | mass density (352.92 K, 17000 kPa, x2 = 0.7995): 640.35 ± 0.44 kg/m3 | mass density (352.92 K, 18000 kPa, x2 = 0.7995): 641.51 ± 0.45 kg/m3 | mass density (352.92 K, 19000 kPa, x2 = 0.7995): 642.64 ± 0.46 kg/m3 | mass density (352.92 K, 20000 kPa, x2 = 0.7995): 643.75 ± 0.47 kg/m3 | mass density (352.92 K, 21000 kPa, x2 = 0.7995): 644.82 ± 0.48 kg/m3 | mass density (352.92 K, 22000 kPa, x2 = 0.7995): 645.88 ± 0.49 kg/m3 | mass density (352.92 K, 23000 kPa, x2 = 0.7995): 646.92 ± 0.5 kg/m3 | mass density (352.92 K, 24000 kPa, x2 = 0.7995): 647.94 ± 0.51 kg/m3 | mass density (352.92 K, 25000 kPa, x2 = 0.7995): 648.91 ± 0.53 kg/m3 | mass density (362.76 K, 1000 kPa, x2 = 0.5749): 622.07 ± 0.28 kg/m3 | mass density (362.76 K, 2000 kPa, x2 = 0.5749): 623.63 ± 0.29 kg/m3 | mass density (362.76 K, 3000 kPa, x2 = 0.5749): 625.2 ± 0.3 kg/m3 | mass density (362.76 K, 4000 kPa, x2 = 0.5749): 626.68 ± 0.3 kg/m3 | mass density (362.76 K, 5000 kPa, x2 = 0.5749): 628.17 ± 0.31 kg/m3 | mass density (362.76 K, 6000 kPa, x2 = 0.5749): 629.67 ± 0.32 kg/m3 | mass density (362.76 K, 7000 kPa, x2 = 0.5749): 631.09 ± 0.33 kg/m3 | mass density (362.76 K, 8000 kPa, x2 = 0.5749): 632.53 ± 0.34 kg/m3 | mass density (362.76 K, 9000 kPa, x2 = 0.5749): 633.92 ± 0.35 kg/m3 | mass density (362.76 K, 10000 kPa, x2 = 0.5749): 635.27 ± 0.36 kg/m3 | mass density (362.76 K, 11000 kPa, x2 = 0.5749): 636.64 ± 0.37 kg/m3 | mass density (362.76 K, 12000 kPa, x2 = 0.5749): 637.96 ± 0.38 kg/m3 | mass density (362.76 K, 13000 kPa, x2 = 0.5749): 639.28 ± 0.39 kg/m3 | mass density (362.76 K, 14000 kPa, x2 = 0.5749): 640.55 ± 0.4 kg/m3 | mass density (362.76 K, 15000 kPa, x2 = 0.5749): 641.82 ± 0.41 kg/m3 | mass density (362.76 K, 16000 kPa, x2 = 0.5749): 643.03 ± 0.42 kg/m3 | mass density (362.76 K, 17000 kPa, x2 = 0.5749): 644.23 ± 0.43 kg/m3 | mass density (362.76 K, 18000 kPa, x2 = 0.5749): 645.42 ± 0.44 kg/m3 | mass density (362.76 K, 19000 kPa, x2 = 0.5749): 646.56 ± 0.45 kg/m3 | mass density (362.76 K, 20000 kPa, x2 = 0.5749): 647.68 ± 0.46 kg/m3 | mass density (362.76 K, 21000 kPa, x2 = 0.5749): 648.78 ± 0.47 kg/m3 | mass density (362.76 K, 22000 kPa, x2 = 0.5749): 649.86 ± 0.48 kg/m3 | mass density (362.76 K, 23000 kPa, x2 = 0.5749): 650.91 ± 0.49 kg/m3 | mass density (362.76 K, 24000 kPa, x2 = 0.5749): 651.95 ± 0.51 kg/m3 | mass density (362.76 K, 25000 kPa, x2 = 0.5749): 652.96 ± 0.52 kg/m3 | mass density (362.88 K, 1000 kPa, x2 = 0.1654): 640.2 ± 0.27 kg/m3 | mass density (362.88 K, 1000 kPa, x2 = 0.2199): 637.97 ± 0.27 kg/m3 | mass density (362.88 K, 2000 kPa, x2 = 0.1654): 641.61 ± 0.28 kg/m3 | mass density (362.88 K, 2000 kPa, x2 = 0.2199): 639.42 ± 0.28 kg/m3 | mass density (362.88 K, 3000 kPa, x2 = 0.1654): 642.98 ± 0.29 kg/m3 | mass density (362.88 K, 3000 kPa, x2 = 0.2199): 640.79 ± 0.29 kg/m3
